This note sets out measurements from patent publication US9914755B2, “Cyclosporin derivatives wherein the MeBmt sidechain has been cyclized” (Allergan, Inc., priority 2015, dated 2018).

Data set [1] deals with T1, Human recombinant cyclophilin A (CypA) (Homo sapiens, UniProt P62937).
T1 construct: purchased Sigma C3805
Description: Protease-free PPIase assay, cyclophilin A. It counts as biochemical. The note with it: human recombinant CypA, 10 °C, SUC-AAPF-pNA substrate; read-out: CypA Protease-free PPIase Assay Ki. As for the experimental part:
(§1) Protease-Free PPIase Assay The protease-free PPIase assay measures the rate of cis to trans conversion of a peptide substrate catalyzed by the enzyme cyclophilin A or D. Addition of a cyclophilin inhibitor (e.g., a test compound) slows the catalyzed rate and a Ki value is obtained. 35 mM HEPES pH 7.8, filtered through a 0.2 μm filter. 50 μM DTT was added prior to use each day and then the buffer was stored on ice. […] Human recombinant 6-His tagged cyclophilin D (CypD), prepared by the University of Edinburgh, was used to generate CypD inhibition data. Succinimide-[…]-nitroanilide (SUC-AAPF-pNA) (from Bachem AG, L-1400), 20 mg/ml prepared in 0.5 M LiCl in trifluoroethanol. All readings were taken with an Agilent 8453 Spectrophotometer which consisted of a cuvette holder, stirrer and chiller to maintain a stirred cuvette temperature of 10.0±0.1° C. The temperature was monitored by the use of temperature probe. […] The inhibitor was diluted in 100% DMSO, and then added to the assay to a maximum final concentration of 0.5% DMSO in the assay. […] The absorbance was measured at 330 nm for 300 s or 500 s for blank runs (NOTE: the substrate was added in one quick injection and the measurements started immediately to minimize mixing errors). A first order rate equation was fitted to the absorbance data, for each concentration of inhibitor, to obtain the rate constant (the first 10 to 15 seconds were excluded, as mixing causes errors in this portion of the curve). The catalytic rate was calculated from the enzymatic rate constant minus the background rate constant. An exponential curve was generated using the catalytic rate constants versus the inhibitor concentration to obtain the Ki value for the inhibitor. The Ki value is indicative of the binding affinity between the test compound and cyclophilin A.

In data set [2] the target is T2, Human recombinant 6-His tagged cyclophilin D (CypD) (Homo sapiens, UniProt P30405).
T2 construct: 6-His
Description: Protease-free PPIase assay, cyclophilin D. Format: biochemical. The following applies: human recombinant 6-His CypD, 10 °C, SUC-AAPF-pNA substrate; read-out: CypD Protease-free PPIase Assay Ki. As for the experimental part: as §1

In a further data set the target is T3, calcineurin (Homo sapiens, UniProt P62937+P63098+Q08209).
T3 construct: purchased Enzo Life Sciences BML-AK804
Nature of the data set: Calcineurin Phosphatase (CaN) Assay. Format: biochemical. The following applies: in the presence of CypA, 1:1 complex of inhibitor with CypA. An excerpt:
Calcineurin Phosphatase (CaN) Assay
The calcineurin phosphatase assay is a means for estimating the immunosuppressive potential of a test compound. Calcineurin is a serine-threonine protein phosphatase that on activation dephosphorylates members of the nuclear factor of activated T cells (NFAT), which are important in T lymphocyte activation.
To investigate the immunosuppressive potential of exemplary compounds of Formula I, which are cyclosporin analogs, their ability to inhibit calcineurin activity was measured in the presence and absence of CypA.
The CaN assay kit used is based on a colorimetric assay for measuring calcineurin phosphatase activity, and it is commercially available (Enzo Life Sciences and Calbiochem). Calmodulin is also required for calcineurin activity, and RII phosphopeptide is used as an efficient peptide substrate for calcineurin. […] The detection of free phosphate released is based on the classic Malachite green assay.
Enzo Life Sciences CaN Assay Kit: BML-AK804
For samples ‘without CypA’, a 4-point dilution series of the inhibitor was prepared in duplicate to obtain a final assay concentration of 10, 1, 0.1 and 0.01 μM. For samples ‘with CypA’, a 7-point dilution series was prepared to obtain a 1:1 complex of the inhibitor with CypA; the inhibitor and CypA final assay concentrations of 10, 3.33, 1.11, 0.37, 0.12, 0.04, 0.014 μM were prepared.
using the half area 96 well plates supplied with the kit, 10 μl UPW was added to duplicate wells to provide the non-inhibited control. 10 μl of the inhibitor or the inhibitor/CypA complex was added to the appropriate sample wells. 25 μl of the 2× assay buffer with calmodulin (CaM) was added to all wells, then 5 μl of calcineurin phosphatase (CaN) was added to all wells (40 U per well final concentration) except duplicate ‘no calcineurin blank’ wells to which 5 μL 1× assay buffer was added. The assay plate was placed in an oven at 30° C. for 15 minutes to equilibrate to the reaction temperature. The reaction was started by the addition of 10 μl RII-peptide (0.15 mM final concentration). The reaction was allowed to proceed at 30° C. for a time period in which the reaction is linear for about 60 minutes. The reaction was then terminated by adding 100 μl of the Malachite Green reagent. The color was allowed to develop for 15-30 minutes at room temperature before the absorbance at 620 nm was measured using a plate reader (Molecular Devices—SpectraMax M5). The data were analyzed by subtracting ‘no calcineurin blank’ from all the absorbance readings and plotting the background corrected absorbances against Log10 inhibitor concentration. A sigmoidal-dose response curve was fitted to the data using GraphPad Prism Software.
It exerts its immunosuppressive activity by binding to CypA to form a complex, which then binds to calcineurin and thereby inhibits calcineurin activity.

A short description of a further data set: physchem. The note with it: 25 °C, pH 7.4, aqueous buffer, kinetic from dmso stock.

≈ marks a conversion by molar mass, not a printed value. Starred links: 1 amine or outer side, 2 acyl side, 3 side chain; linkers in the order of their positions; H or OH if unused. Non-standard residues stand in square brackets, D forms with d. Residues, ends and D or L forms follow the SMILES beside them. X1 = C[C@@H]1CCO[C@H]1[C@H](C(=O)[*:2])N(C)[*:1]; NMeL = CN[C@@H](CC(C)C)C(=O)O; dNMeL = CN[C@H](CC(C)C)C(=O)O; dNMeV = CN[C@@H](C(=O)O)C(C)C; dNMeA = CN[C@H](C)C(=O)O

T2 sequence (P30405 30-207): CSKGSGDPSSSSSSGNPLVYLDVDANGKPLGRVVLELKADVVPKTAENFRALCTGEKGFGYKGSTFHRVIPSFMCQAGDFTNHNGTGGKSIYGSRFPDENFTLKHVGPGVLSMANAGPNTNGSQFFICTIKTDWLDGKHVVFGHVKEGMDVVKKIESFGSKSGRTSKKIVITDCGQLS
T1 sequence (P62937 whole entry): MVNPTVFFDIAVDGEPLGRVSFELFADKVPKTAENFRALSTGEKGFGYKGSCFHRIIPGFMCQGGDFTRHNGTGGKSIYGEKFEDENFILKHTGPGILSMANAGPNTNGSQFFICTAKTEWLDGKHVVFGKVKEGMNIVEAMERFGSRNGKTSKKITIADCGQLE
Description for physchem: The aqueous solubility of a compound of Formula I in buffer (pH 7.8) was measured by recording the onset of precipitation of the compound as a function of increasing concentration. The onset of precipitation, if it occurred, was detected by an increase in absorbance at 650 nm.
Stock solutions of Control and Test Compounds: 10 mM in 100% DMSO.
10 mM stock solutions of control and test compounds were prepared in 100% DMSO.
Assay buffer (247.5 μl) was placed into a flat bottomed transparent 96-well plate. For blank samples, DMSO (2.5 μl) was added. For test and control samples, 2.5 μl of the appropriate DMSO dilution stocks were added to the appropriate well. All test and control compounds were performed in triplicate.
The plates were sealed with adhesive plate seal and shaken at 250 rpm at 25° C. for 18 h on a plate shaker. After incubation, the plate seals were taken off and any bubbles observed in wells removed. The plates were read on a SpectraMaxM5 with a 5 s pre-shake at 650 nm.
Data files were transferred to the appropriate worksheet and the solubility range of the compounds was calculated from the data.

As for `CC[C@H]1NC(=O)[C@H]([C@H]2NCC[C@H]2C)N(C)C(=O)[C@@H](C(C)C)N(C)C(=O)[C@@H](CC(C)C)N(C)C(=O)[C@@H](CC(C)C)N(C)C(=O)[C@H](C)NC(=O)[C@@H](C)NC(=O)[C@@H](CC(C)C)N(C)C(=O)[C@@H](C(C)C)NC(=O)[C@H](CC(C)C)N(C)C(=O)[C@@H](C)N(C)C1=O` [Compound 20, [(2S)-2-(methylamino)-2-[(2S,3R)-3-methylpyrrolidin-2-yl]acetic acid]^1 [(R)-methyl-Sar]^3 cyclosporin A], the inhibitory constant (Ki) (commonly a measure of affinity in units of concentration, obtained from inhibition or displacement) was 149 nM in data set [1] and 36 nM in data set [2]. Besides, at calcineurin, the half-inhibitory concentration (IC50) (in general, the midpoint of a concentration-inhibition curve) was above 10000 nM. In “physchem”, the solubility (in general, the dissolved amount per volume that the medium holds) at 18 h was above 100 µM.

For the compound `CC[C@H]1NC(=O)[C@H]([C@@H]2[C@H](C)CCN2C)N(C)C(=O)[C@@H](C(C)C)N(C)C(=O)[C@@H](CC(C)C)N(C)C(=O)[C@@H](CC(C)C)N(C)C(=O)[C@H](C)NC(=O)[C@@H](C)NC(=O)[C@@H](CC(C)C)N(C)C(=O)[C@@H](C(C)C)NC(=O)[C@H](CC(C)C)N(C)C(=O)[C@@H](C)N(C)C1=O` [Compound 19, [(2S)-2-[(2S,3R)-1,3-dimethylpyrrolidin-2-yl]-2-(methylamino)acetic acid]^1 [(R)-methyl-Sar]^3 cyclosporin A], the figures for the Ki in data set [1] and in data set [2] were 404 nM and 130 nM, respectively. The half-maximal inhibitory concentration (IC50) at calcineurin was found to be 8990 nM. The solubility at 18 h in “physchem” was above 100 µM.

With `CC[C@H]1NC(=O)[C@H]([C@H]2OCC[C@H]2C)N(C)C(=O)[C@@H](C(C)C)N(C)C(=O)[C@@H](CC(C)C)N(C)C(=O)[C@@H](CC(C)C)N(C)C(=O)[C@H](C)NC(=O)[C@@H](C)NC(=O)[C@@H](CC(C)C)N(C)C(=O)[C@@H](C(C)C)NC(=O)[C@H](CC(C)C)N(C)C(=O)[C@@H](C)N(C)C1=O` [Compound 18, [(2S)-2-(methylamino)-2-[(2S,3R)-3-methyltetrahydrofuran-2-yl]acetic acid]^1 [(R)-methyl-Sar]^3 cyclosporin A], the Ki was 79 nM in data set [1] and 15 nM in data set [2]. Moreover, on calcineurin, the half-maximal inhibitory concentration (IC50) was above 10000 nM. This compound gave a solubility at 18 h in the data set “physchem” of 25 µM (≈ 29.7 µg/mL).

Regarding `CC(C)C[C@@H]1C(=O)N(C)[C@H](CC(C)C)C(=O)N(C)[C@H](C(C)C)C(=O)N(C)[C@H]([C@@H]2OCC[C@H]2C)C(=O)N[C@H]([C@@H](C)O)C(=O)N(C)CC(=O)N(C)[C@@H](CC(C)C)C(=O)N[C@H](C(C)C)C(=O)N(C)[C@H](CC(C)C)C(=O)N[C@H](C)C(=O)N[C@@H](C)C(=O)N1C` [Compound 8, [(2S)-2-(methylamino)-2-[(2R,3R)-3-methyltetrahydrofuran-2-yl]acetic acid]^1 cyclosporin C], the Ki worked out at 1500 nM in data set [1] and 105 nM in data set [2]. On calcineurin, the IC50 is above 10000 nM. For the same compound, in the data set “physchem”, the solubility at 18 h is above 100 µM.

With `CC[C@@H]1C(=O)N(C)[C@@H](CC(C)C)C(=O)N[C@H](C(C)C)C(=O)N(C)[C@H](CC(C)C)C(=O)N[C@H](C)C(=O)N[C@@H](C)C(=O)N(C)[C@H](CC(C)C)C(=O)N(C)[C@H](CC(C)C)C(=O)N(C)[C@H](C(C)C)C(=O)N(C)[C@H]([C@@H]2OCC[C@H]2C)C(=O)N[C@H](CC)C(=O)N1C` [Compound 1, [(2S)-2-(methylamino)-2-[(2R,3R)-3-methyltetrahydrofuran-2-yl]acetic acid]^1 [(R)-ethyl-Sar]^3 cyclosporin A], the Ki was determined as 81 nM in data set [1] and 9.7 nM in data set [2]. The IC50 on calcineurin is above 10000 nM. Also, the solubility at 18 h in “physchem” was 75 µM (≈ 90.2 µg/mL).

As to `CC(C)C[C@@H]1C(=O)N(C)[C@H](CC(C)C)C(=O)N(C)[C@H](C(C)C)C(=O)N(C)[C@H]([C@@H]2OCC[C@H]2C)C(=O)N[C@H](C(C)C)C(=O)N(C)[C@H](C)C(=O)N(C)[C@@H](CC(C)C)C(=O)N[C@H](C(C)C)C(=O)N(C)[C@H](CC(C)C)C(=O)N[C@H](C)C(=O)N[C@@H](C)C(=O)N1C` [Compound 6, [(2S)-2-(methylamino)-2-[(2R,3R)-3-methyltetrahydrofuran-2-yl]acetic acid]^1 [(R)-methyl-Sar]^3 cyclosporin D] (cyclo(A[dNMeL][dNMeL][dNMeV][X1][dV][dNMeA][NMeL][dV][dNMeL][dA])), the inhibition constant Ki stood at 5.6 nM in data set [1] and 1.9 nM in data set [2]. Besides, the IC50 on calcineurin is above 10000 nM. For the same compound, the concentration in solution in “physchem” (solubility at 18 h) came to 50 µM (≈ 60.1 µg/mL).

Regarding `CC[C@H]1NC(=O)[C@@H](C2OC(C)C[C@H]2C)N(C)C(=O)[C@@H](C(C)C)N(C)C(=O)[C@@H](CC(C)C)N(C)C(=O)[C@@H](CC(C)C)N(C)C(=O)[C@H](C)NC(=O)[C@@H](C)NC(=O)[C@@H](CC(C)C)N(C)C(=O)[C@@H](C(C)C)NC(=O)[C@H](CC(C)C)N(C)C(=O)[C@@H](C)N(C)C1=O` (stereo partly drawn) [Compound 26, [(2S)-2-[(2R,3R)-3,5-dimethyltetrahydrofuran-2-yl]-2-(methylamino)acetic acid]^1 [(R)-methyl-Sar]^3 cyclosporin A], the inhibitory constant (Ki) in data set [1] came out at 275 nM; in data set [2] it was 64 nM. The half-maximal inhibitory concentration (IC50) on calcineurin was above 10000 nM. In the data set “physchem”, the solubility at 18 h was determined as 75 µM (≈ 90.2 µg/mL).

With `CC(C)C[C@@H]1C(=O)N(C)[C@H](CC(C)C)C(=O)N(C)[C@H](C(C)C)C(=O)N(C)[C@H]([C@@H]2OCC[C@H]2C)C(=O)N[C@H](C)C(=O)N(C)[C@H](C)C(=O)N(C)[C@@H](CC(C)C)C(=O)N[C@H](C(C)C)C(=O)N(C)[C@H](CC(C)C)C(=O)N[C@H](C)C(=O)N[C@@H](C)C(=O)N1C` [Compound 10, [(2S)-2-(methylamino)-2-[(2R,3R)-3-methyltetrahydrofuran-2-yl]acetic acid]^1 [(R)-methyl-Sar]^3 cyclosporin B] (cyclo(A[dNMeL][dNMeL][dNMeV][X1][dA][dNMeA][NMeL][dV][dNMeL][dA])), the inhibition constant Ki in data set [1] was 2000 nM; in data set [2], 680 nM. Further, the IC50 on calcineurin was above 10000 nM. The compound further showed a solubility at 18 h in the data set “physchem” above 100 µM.

Take `CCC[C@@H]1C(=O)N(C)[C@@H](CC(C)C)C(=O)N[C@H](C(C)C)C(=O)N(C)[C@H](CC(C)C)C(=O)N[C@H](C)C(=O)N[C@@H](C)C(=O)N(C)[C@H](CC(C)C)C(=O)N(C)[C@H](CC(C)C)C(=O)N(C)[C@H](C(C)C)C(=O)N(C)[C@H]([C@@H]2OCC[C@H]2C)C(=O)N[C@H](CC)C(=O)N1C` [Compound 2, [(2S)-2-(methylamino)-2-[(2R,3R)-3-methyltetrahydrofuran-2-yl]acetic acid]^1 [(R)-propyl-Sar]^3 cyclosporin A]: the results for the inhibition constant Ki in data set [1] and in data set [2] were 237 nM and 39 nM, respectively. In addition, the IC50 on calcineurin is above 10000 nM. The amount in solution in the data set “physchem” (solubility at 18 h) came to 50 µM (≈ 60.8 µg/mL).
